Measurements taken from patent publication US20260297081A1, “COMPOUNDS AND METHODS OF TREATING CANCERS” (Cullgen Inc., priority 2023, published 2026).

Legend:
MCF7 cells = test: Anti-proliferation (viability) of MCF7 cells (Table 7, FIG. 2B); format: cell-based; settings: Homo sapiens, MCF7, MCF7 cells, 3-6 days, 10-point serial dilution; read-out: GI IC50 in MCF-7
Calu-1 cells = test: Anti-proliferation (viability) of NSCLC Calu-1 cells, 3 days (Table 7, FIG. 2B); format: cell-based; settings: Homo sapiens, 72 h; Calu-1 cells, 3 days, 10-point serial dilution; read-out: GI IC50 in Calu-1
Method in brief: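 Cells were exposed to heterobifunctional compounds across a 10-point serial dilution, for 3 days with Calu-1 and 6 days with T47D. A negative control was included that keeps the DDB1 ligand and linker but carries a modified warhead that impairs CDK4 binding.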

| IC50 (MCF7 cells) [nM] | IC50 (Calu-1 cells) [nM] | SMILES |
| --- | --- | --- |
| < 50 | ≤ 10 | [2H]C([2H])([2H])Nc1ccc(C(=O)Nc2ccc(N(C)C)nn2)c(NC2CC3(C2)CN(C(=O)CN(C)C2CCN(c4ccc(Nc5ncc6c(C)c(C(C)=O)c(=O)n(C7CCCC7)c6n5)nc4)CC2)C3)n1 [CPD-464, 2-((2-(N-(1-(6-((6-acetyl-8-cyclopentyl-5-methyl-7-oxo-7,8-dihydropyrido[2,3-d]pyrimidin-2-yl)amino)pyridin-3-yl)piperidin-4-yl)-N-methylglycyl)-2-azaspiro[3.3]heptan-6-yl)amino)-N-(6-(dimethylamino)pyridazin-3-yl)-6-((methyl-d3)amino)nicotinamide] |
| < 50 | ≤ 10 | CC(=O)c1c(C)c2cnc(Nc3ccc(N4CCC(N(C)CC(=O)N5CCC(Nc6nc(NC(C)C)ccc6C(=O)Nc6cc(C)n(C)n6)CC5)CC4)cn3)nc2n(C2CCCC2)c1=O [CPD-465, 2-((1-(N-(1-(6-((6-acetyl-8-cyclopentyl-5-methyl-7-oxo-7,8-dihydropyrido[2,3-d]pyrimidin-2-yl)amino)pyridin-3-yl)piperidin-4-yl)-N-methylglycyl)piperidin-4-yl)amino)-N-(1,5-dimethyl-1H-pyrazol-3-yl)-6-(isopropylamino)nicotinamide] |
| 50 to 100 | ≤ 10 | CC(=O)c1c(C)c2cnc(Nc3ccc(N4CCC(N(C)CC(=O)N5CCC(Nc6nc(NC(C)C)ccc6C(=O)Nc6cn(C)c(C7CC7)n6)CC5)CC4)cn3)nc2n(C2CCCC2)c1=O [CPD-466, 2-((1-(N-(1-(6-((6-acetyl-8-cyclopentyl-5-methyl-7-oxo-7,8-dihydropyrido[2,3-d]pyrimidin-2-yl)amino)pyridin-3-yl)piperidin-4-yl)-N-methylglycyl)piperidin-4-yl)amino)-N-(2-cyclopropyl-1-methyl-1H-imidazol-4-yl)-6-(isopropylamino)nicotinamide] |
| > 100 | ≤ 10 | CC(=O)c1c(C)c2cnc(Nc3ccc(N4CC5(CN(CC(=O)NC6CC7(C6)CC(Nc6nc(NC(C)C)ccc6C(=O)Nc6ccc(N(C)C)nn6)C7)C5)C4)cn3)nc2n(C2CCCC2)c1=O (centres unmarked) [CPD-467, 2-((6-(2-(6-(6-((6-acetyl-8-cyclopentyl-5-methyl-7-oxo-7,8-dihydropyrido[2,3-d]pyrimidin-2-yl)amino)pyridin-3-yl)-2,6-diazaspiro[3.3]heptan-2-yl)acetamido)spiro[3.3]heptan-2-yl)amino)-N-(6-(dimethylamino)pyridazin-3-yl)-6-(isopropylamino)nicotinamide] |
| > 100 | 10 to 50 | CC(=O)c1c(C)c2cnc(Nc3ccc(N4CC5(CN(CC(=O)NCC6CC(Nc7nc(NC(C)C)ccc7C(=O)Nc7ccc(N(C)C)nn7)C6)C5)C4)cn3)nc2n(C2CCCC2)c1=O (centres unmarked) [CPD-468, 2-((3-((2-(6-(6-((6-acetyl-8-cyclopentyl-5-methyl-7-oxo-7,8-dihydropyrido[2,3-d]pyrimidin-2-yl)amino)pyridin-3-yl)-2,6-diazaspiro[3.3]heptan-2-yl)acetamido)methyl)cyclobutyl)amino)-N-(6-(dimethylamino)pyridazin-3-yl)-6-(isopropylamino)nicotinamide] |
| > 100 | ≤ 10 | CC(=O)c1c(C)c2cnc(Nc3ccc(N4CCN(C5CCN(C(=O)NC6CC7(C6)CC(Nc6nc(NC(C)C)ccc6C(=O)Nc6ccc(N(C)C)nn6)C7)C5)CC4)cn3)nc2n(C2CCCC2)c1=O (centres unmarked) [CPD-470, 2-((6-(3-(4-(6-((6-acetyl-8-cyclopentyl-5-methyl-7-oxo-7,8-dihydropyrido[2,3-d]pyrimidin-2-yl)amino)pyridin-3-yl)piperazin-1-yl)pyrrolidine-1-carboxamido)spiro[3.3]heptan-2-yl)amino)-N-(6-(dimethylamino)pyridazin-3-yl)-6-(isopropylamino)nicotinamide] |
| < 50 | ≤ 10 | [2H]C([2H])([2H])Nc1ccc(C(=O)Nc2ccc(N(C)C)nn2)c(NC2CC(C(=O)N3CCC(N4CCN(c5ccc(Nc6ncc7c(C)c(C(C)=O)c(=O)n(C8CCCC8)c7n6)nc5)CC4)C3)C2)n1 (centres unmarked) [CPD-471, 2-((3-(3-(4-(6-((6-acetyl-8-cyclopentyl-5-methyl-7-oxo-7,8-dihydropyrido[2,3-d]pyrimidin-2-yl)amino)pyridin-3-yl)piperazin-1-yl)pyrrolidine-1-carbonyl)cyclobutyl)amino)-N-(6-(dimethylamino)pyridazin-3-yl)-6-((methyl-d3)amino)nicotinamide] |
| 50 to 100 | ≤ 10 | [2H]C([2H])([2H])Nc1ccc(C(=O)Nc2ccc(N(C)C)nn2)c(NC2CCN(C(=O)CN3CCN(Cc4ccc(Nc5ncc6c(C)c(C(C)=O)c(=O)n(C7CCCC7)c6n5)nc4)CC3)CC2)n1 [CPD-474, 2-((1-(2-(4-((6-((6-acetyl-8-cyclopentyl-5-methyl-7-oxo-7,8-dihydropyrido[2,3-d]pyrimidin-2-yl)amino)pyridin-3-yl)methyl)piperazin-1-yl)acetyl)piperidin-4-yl)amino)-N-(6-(dimethylamino)pyridazin-3-yl)-6-((methyl-d3)amino)nicotinamide] |
| > 100 | ≤ 10 | CC(=O)c1c(C)c2cnc(Nc3ccc(CN4CCN(CC(=O)NC5CC(Nc6nc(NC(C)C)ccc6C(=O)Nc6ccc(N(C)C)nn6)C5)CC4)cn3)nc2n(C2CCCC2)c1=O (centres unmarked) [CPD-475, 2-((3-(2-(4-((6-((6-acetyl-8-cyclopentyl-5-methyl-7-oxo-7,8-dihydropyrido[2,3-d]pyrimidin-2-yl)amino)pyridin-3-yl)methyl)piperazin-1-yl)acetamido)cyclobutyl)amino)-N-(6-(dimethylamino)pyridazin-3-yl)-6-(isopropylamino)nicotinamide] |
| < 50 | ≤ 10 | [2H]C([2H])([2H])Nc1ccc(C(=O)Nc2ccc(N(C)C)nn2)c(N[C@H]2CC[C@H](C(=O)N3CCC(N4CCN(c5ccc(Nc6ncc7c(C)c(C(C)=O)c(=O)n(C8CCCC8)c7n6)nc5)CC4)C3)CC2)n1 (stereo partly drawn) [CPD-476, 2-((trans-4-(3-(4-(6-((6-acetyl-8-cyclopentyl-5-methyl-7-oxo-7,8-dihydropyrido[2,3-d]pyrimidin-2-yl)amino)pyridin-3-yl)piperazin-1-yl)pyrrolidine-1-carbonyl)cyclohexyl)amino)-N-(6-(dimethylamino)pyridazin-3-yl)-6-((methyl-d3)amino)nicotinamide] |
| > 100 | 10 to 50 | [2H]C([2H])([2H])Nc1ccc(C(=O)Nc2cc(C)n(C)n2)c(N[C@H]2CC[C@H](C(=O)N3CCC(N4CCN(c5ccc(Nc6ncc7c(C)c(C(C)=O)c(=O)n(C8CCCC8)c7n6)nc5)CC4)C3)CC2)n1 (some centres unmarked) [CPD-477, 2-((4-(3-(4-(6-((6-acetyl-8-cyclopentyl-5-methyl-7-oxo-7,8-dihydropyrido[2,3-d]pyrimidin-2-yl)amino)pyridin-3-yl)piperazin-1-yl)pyrrolidine-1-carbonyl)cyclohexyl)amino)-N-(1,5-dimethyl-1H-pyrazol-3-yl)-6-((methyl-d3)amino)nicotinamide] |
| < 50 | ≤ 10 | [2H]C([2H])([2H])Nc1ccc(C(=O)Nc2ccc(N(C)C)nn2)c(NC2CCN(C(=O)N3CCC(N4CCN(c5ccc(Nc6ncc7c(C)c(C(C)=O)c(=O)n(C8CCCC8)c7n6)nc5)CC4)C3)CC2)n1 (centres unmarked) [CPD-482, 2-((1-(3-(4-(6-((6-acetyl-8-cyclopentyl-5-methyl-7-oxo-7,8-dihydropyrido[2,3-d]pyrimidin-2-yl)amino)pyridin-3-yl)piperazin-1-yl)pyrrolidine-1-carbonyl)piperidin-4-yl)amino)-N-(6-(dimethylamino)pyridazin-3-yl)-6-((methyl-d3)amino)nicotinamide] |
| < 50 | ≤ 10 | CC(=O)c1c(C)c2cnc(Nc3ccc(CN4CCC(NC(=O)C5CC6(CC(Nc7nc(NC(C)C)ccc7C(=O)Nc7ccc(N(C)C)nn7)C6)C5)CC4)cn3)nc2n(C2CCCC2)c1=O (centres unmarked) [CPD-486, 2-((6-((1-((6-((6-acetyl-8-cyclopentyl-5-methyl-7-oxo-7,8-dihydropyrido[2,3-d]pyrimidin-2-yl)amino)pyridin-3-yl)methyl)piperidin-4-yl)carbamoyl)spiro[3.3]heptan-2-yl)amino)-N-(6-(dimethylamino)pyridazin-3-yl)-6-(isopropylamino)nicotinamide] |
| < 50 | ≤ 10 | [2H]C([2H])([2H])Nc1ccc(C(=O)Nc2ccc(N(C)C)nn2)c(NC2CC3(C2)CN(C(=O)CN2CCN(C(C)c4ccc(Nc5ncc6c(C)c(C(C)=O)c(=O)n(C7CCCC7)c6n5)nc4)CC2)C3)n1 (centres unmarked) [CPD-488, 2-((2-(2-(4-(1-(6-((6-acetyl-8-cyclopentyl-5-methyl-7-oxo-7,8-dihydropyrido[2,3-d]pyrimidin-2-yl)amino)pyridin-3-yl)ethyl)piperazin-1-yl)acetyl)-2-azaspiro[3.3]heptan-6-yl)amino)-N-(6-(dimethylamino)pyridazin-3-yl)-6-((methyl-d3)amino)nicotinamide] |
| < 50 | ≤ 10 | CC(=O)c1c(C)c2cnc(Nc3ccc(N4CCN(C(C)CC(=O)NC56CC(Nc7nc(NC(C)C)ccc7C(=O)Nc7ccc(N(C)C)nn7)(C5)C6)CC4)cn3)nc2n(C2CCCC2)c1=O (centres unmarked) [CPD-504, 2-((3-(3-(4-(6-((6-acetyl-8-cyclopentyl-5-methyl-7-oxo-7,8-dihydropyrido[2,3-d]pyrimidin-2-yl)amino)pyridin-3-yl)piperazin-1-yl)butanamido)bicyclo[1.1.1]pentan-1-yl)amino)-N-(6-(dimethylamino)pyridazin-3-yl)-6-(isopropylamino)nicotinamide] |
| < 50 | ≤ 10 | CCc1ccc(C(=O)Nc2ccc(N(C)C)nn2)c(N[C@H]2CC[C@H](C(=O)N3CCC(N4CCN(c5ccc(Nc6ncc7c(C)c(C(C)=O)c(=O)n(C8CCCC8)c7n6)nc5)CC4)C3)CC2)c1 (stereo partly drawn) [CPD-526, 2-((trans-4-(3-(4-(6-((6-acetyl-8-cyclopentyl-5-methyl-7-oxo-7,8-dihydropyrido[2,3-d]pyrimidin-2-yl)amino)pyridin-3-yl)piperazin-1-yl)pyrrolidine-1-carbonyl)cyclohexyl)amino)-N-(6-(dimethylamino)pyridazin-3-yl)-4-ethylbenzamide] |
